Laboratory results from patent US7767659B2, “Synthesis of naturally occurring ecteinascidins and related compounds” (Pharma Mar, S.A., priority 2002, dated 2010).
Read-outs that look alike come from different tables or passages of the source.

Legend:
LoVo = assay: cells; conditions: Homo sapiens, LoVo, 48 h
Outline: (§1)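 Colorimetric SRB read (490 nm) on triplicate wells after 48 h at 37 °C, 5% CO2. Dose range 10 to 10^−8 μg/ml; 5×10^3 cells/well pre-attached 18 h.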

HT-29 = assay: cells; conditions: Homo sapiens, HT-29, 48 h
Outline: as §1

A-549 = assay: cells; conditions: Homo sapiens, A549, 48 h
Outline: as §1

HeLa-APL = assay: Inhibition of cells growth by colorimetric assay (SRB); conditions: Homo sapiens, 48 h
Outline: as §1

DU-145 = assay: as above; conditions: Homo sapiens, DU-145, 48 h
Outline: as §1

IGROV-ET = assay: as above; conditions: Homo sapiens, 48 h
Outline: as §1

LoVo-Dox = assay: as above; conditions: Homo sapiens, 48 h; for CC50: read-out: LOVO-DOX LC50
Outline: as §1

PANC-1 = assay: as above; conditions: Homo sapiens, PANC-1, 48 h; for CC50: read-out: PANC-1 LC50
Outline: as §1

LNCaP = assay: as above; conditions: Homo sapiens, LNCaP, 48 h
Outline: as §1

SK-BR-3 = assay: as above; conditions: Homo sapiens, SK-BR-3, 48 h
Outline: as §1

HeLa = assay: as above; conditions: Homo sapiens, HeLa, 48 h
Outline: as §1

K-562 = assay: as above; conditions: Homo sapiens, K562, 48 h
Outline: as §1

SK-MEL-28 = assay: as above; conditions: Homo sapiens, SK-MEL-28, 48 h
Outline: as §1

IGROV-1 = assay: as above; conditions: Homo sapiens, IGROV-1, 48 h
Outline: as §1

`COc1cc2c(cc1O)CCN[C@]21CS[C@@H]2c3c(OC(=O)/C=C/c4ccccc4)c(C)c4c(c3[C@H](COC1=O)N1C2[C@@H]2N[C@@H](Cc3cc(C)c(OC)c(O)c32)[C@@H]1C#N)OCO4` (some centres unmarked) [compound 51] gave a GI50 (LoVo; read-out: LOVO GI50) of 3.93 nM, a CC50 (LoVo; read-out: LOVO LC50) of 11800 nM and an IC (TGI) (LoVo; read-out: LOVO TGI) of 8.86 nM. It also gave a GI50 (HT-29; read-out: HT29 GI50) of 5.24 nM, a CC50 (HT-29; read-out: HT29 LC50) of 11.8 nM and an IC (TGI) (HT-29; read-out: HT29 TGI) of 2370 nM. The GI50 (A-549; read-out: A549 GI50) was 2.85 nM, the CC50 (A-549; read-out: A549 LC50) was 542 nM and the IC (TGI) (A-549; read-out: A549 TGI) was 6.59 nM. The GI50 (HeLa-APL; read-out: HELA-APL GI50) was 3.49 nM, the CC50 (HeLa-APL; read-out: HELA-APL LC50) was 10.9 nM and the IC (TGI) (HeLa-APL; read-out: HELA-APL TGI) was 6.18 nM. For the same molecule, the GI50 (DU-145; read-out: DU145 GI50) was 5.24 nM, the CC50 (DU-145; read-out: DU145 LC50) was 11800 nM and the IC (TGI) (DU-145; read-out: DU145 TGI) was 16.3 nM. The GI50 (IGROV-ET; read-out: IGROV-ET GI50) was 43.6 nM, the CC50 (IGROV-ET; read-out: IGROV-ET LC50) was 11800 nM and the IC (TGI) (IGROV-ET; read-out: IGROV-ET TGI) was 118 nM. The GI50 (LoVo-Dox; read-out: LOVO-DOX GI50) was 352 nM, the CC50 (LoVo-Dox) was 11800 nM and the IC (TGI) (LoVo-Dox; read-out: LOVO-DOX TGI) was 11800 nM. For the same molecule, the GI50 (PANC-1; read-out: PANC-1 GI50) was 3.53 nM, the CC50 (PANC-1) was 520 nM and the IC (TGI) (PANC-1; read-out: PANC-1 TGI) was 7.73 nM. It also gave a GI50 (LNCaP; read-out: LNCAP GI50) of 2.31 nM, a CC50 (LNCaP; read-out: LNCAP LC50) of 6.82 nM and an IC (TGI) (LNCaP; read-out: LNCAP TGI) of 3.96 nM. The GI50 (SK-BR-3; read-out: SK-BR3 GI50) was 5.05 nM, the CC50 (SK-BR-3; read-out: SK-BR3 LC50) was 11800 nM and the IC (TGI) (SK-BR-3; read-out: SK-BR3 TGI) was 344 nM. For the same molecule, the GI50 (HeLa; read-out: HELA GI50) was 3.43 nM, the CC50 (HeLa; read-out: HELA LC50) was 15.5 nM and the IC (TGI) (HeLa; read-out: HELA TGI) was 6.63 nM. For the same molecule, the GI50 (K-562; read-out: K562 GI50) was 3.15 nM, the CC50 (K-562; read-out: K562 LC50) was 653 nM and the IC (TGI) (K-562; read-out: K562 TGI) was 7.75 nM. For the same molecule, the GI50 (SK-MEL-28; read-out: MEL-28 GI50) was 2.71 nM, the CC50 (SK-MEL-28; read-out: MEL-28 LC50) was 7.94 nM and the IC (TGI) (SK-MEL-28; read-out: MEL-28 TGI) was 4.64 nM. For the same molecule, the GI50 (IGROV-1; read-out: IGROV GI50) was 3.35 nM, the CC50 (IGROV-1; read-out: IGROV LC50) was 118000 nM and the IC (TGI) (IGROV-1; read-out: IGROV TGI) was 6.45 nM.
`COc1c(C)cc2c(c1O)[C@H]1N[C@@H](C2)[C@H](O)N2C1[C@@H]1SCC(NC(C)=O)C(=O)OC[C@H]2c2c3c(c(C)c(OC(C)=O)c21)OCO3` (some centres unmarked) [compound 36] showed a GI50 (LoVo; read-out: LOVO GI50) of 2.12 nM, a CC50 (LoVo; read-out: LOVO LC50) of 15.6 nM and an IC (TGI) (LoVo; read-out: LOVO TGI) of 5.91 nM. It also gave a GI50 (HT-29; read-out: GI50 HT29) of 2.73 nM, a CC50 (HT-29; read-out: LC50 HT29) of 15600 nM and an IC (TGI) (HT-29; read-out: TGI HT29) of 11.7 nM. For the same molecule, the GI50 (A-549; read-out: GI50 A549) was 5.56 nM, the CC50 (A-549; read-out: LC50 A549) was 83.8 nM and the IC (TGI) (A-549; read-out: TGI A549) was 22.9 nM. The GI50 (HeLa-APL; read-out: HELA-APL GI50) was 1.85 nM, the CC50 (HeLa-APL; read-out: HELA-APL LC50) was 10 nM and the IC (TGI) (HeLa-APL; read-out: HELA-APL TGI) was 4.3 nM. For the same molecule, the GI50 (DU-145; read-out: GI50 DU145) was 3.58 nM, the CC50 (DU-145; read-out: LC50 DU145) was 10400 nM and the IC (TGI) (DU-145; read-out: TGI DU145) was 9.55 nM. It also gave a GI50 (IGROV-ET; read-out: IGROV-ET GI50) of 27.7 nM, a CC50 (IGROV-ET; read-out: IGROV-ET LC50) of 15600 nM and an IC (TGI) (IGROV-ET; read-out: IGROV-ET TGI) of 71.7 nM. For the same molecule, the GI50 (LoVo-Dox; read-out: LOVO-DOX GI50) was 246 nM, the CC50 (LoVo-Dox) was 15600 nM and the IC (TGI) (LoVo-Dox; read-out: LOVO-DOX TGI) was 1090 nM. It also gave a GI50 (PANC-1; read-out: PANC-1 GI50) of 2.82 nM, a CC50 (PANC-1) of 2600 nM and an IC (TGI) (PANC-1; read-out: PANC-1 TGI) of 9.72 nM. The GI50 (LNCaP; read-out: GI50 LNCAP) was 0.46 nM, the CC50 (LNCaP; read-out: LC50 LNCAP) was 5.06 nM and the IC (TGI) (LNCaP; read-out: TGI LNCAP) was 1.37 nM. For the same molecule, the GI50 (SK-BR-3; read-out: SK-BR3 GI50) was 2.87 nM, the CC50 (SK-BR-3; read-out: SK-BR3 LC50) was 15.4 nM and the IC (TGI) (SK-BR-3; read-out: SK-BR3 TGI) was 6.65 nM. The GI50 (HeLa; read-out: HELA GI50) was 1.46 nM, the CC50 (HeLa; read-out: HELA LC50) was 9.82 nM and the IC (TGI) (HeLa; read-out: HELA TGI) was 3.85 nM. The GI50 (K-562; read-out: K562 GI50) was 0.246 nM, the CC50 (K-562; read-out: K562 LC50) was 5.11 nM and the IC (TGI) (K-562; read-out: K562 TGI) was 0.7 nM. The GI50 (SK-MEL-28; read-out: GI50 MEL-28) was 1.84 nM, the CC50 (SK-MEL-28; read-out: LC50 MEL-28) was 8.71 nM and the IC (TGI) (SK-MEL-28; read-out: TGI MEL-28) was 4.01 nM. The GI50 (IGROV-1; read-out: IGROV GI50) was 1.12 nM, the CC50 (IGROV-1; read-out: IGROV LC50) was 10.4 nM and the IC (TGI) (IGROV-1; read-out: IGROV TGI) was 3.79 nM.
`C=CCN1[C@@H]2c3c(cc(C)c(OC)c3O)C[C@H]1[C@H](C#N)N1C2[C@@H]2SC[C@H](NC(=O)c3cc4ccccc4oc3=O)C(=O)OC[C@H]1c1c3c(c(C)c(OC(C)=O)c12)OCO3` (some centres unmarked) [compound 28] gave a GI50 (LoVo; read-out: GI50 LOVO) of 66.3 nM, a CC50 (LoVo; read-out: LC50 LOVO) of 687 nM and an IC (TGI) (LoVo; read-out: TGI LOVO) of 212 nM. For the same molecule, the GI50 (HT-29; read-out: GI50 HT29) was 76.5 nM, the IC (TGI) (HT-29; read-out: TGI HT29) was 2050 nM and the GI50 (A-549; read-out: GI50 A549) was 52.5 nM. For the same molecule, the CC50 (A-549; read-out: LC50 A549) was 2270 nM, the IC (TGI) (A-549; read-out: TGI A549) was 163 nM and the GI50 (HeLa-APL; read-out: GI50 HELA-APL) was 55.9 nM. For the same molecule, the CC50 (HeLa-APL; read-out: LC50 HELA-APL) was 682 nM, the IC (TGI) (HeLa-APL; read-out: TGI HELA-APL) was 130 nM and the GI50 (DU-145; read-out: GI50 DU145) was 35.8 nM. It also gave an IC (TGI) (DU-145; read-out: TGI DU145) of 1270 nM, a GI50 (IGROV-ET; read-out: GI50 IGROV-ET) of 138 nM and a CC50 (IGROV-ET; read-out: LC50 IGROV-ET) of 898 nM. It also gave an IC (TGI) (IGROV-ET; read-out: TGI IGROV-ET) of 352 nM, a GI50 (LoVo-Dox; read-out: GI50 LOVO-DOX) of 362 nM and an IC (TGI) (LoVo-Dox; read-out: TGI LOVO-DOX) of 1220 nM. The GI50 (PANC-1; read-out: GI50 PANC-1) was 59.2 nM, the IC (TGI) (PANC-1; read-out: TGI PANC-1) was 197 nM and the GI50 (LNCaP; read-out: GI50 LNCAP) was 22.9 nM. The CC50 (LNCaP; read-out: LC50 LNCAP) was 111 nM, the IC (TGI) (LNCaP; read-out: TGI LNCAP) was 50.4 nM and the GI50 (SK-BR-3; read-out: GI50 SK-BR3) was 47.3 nM. The CC50 (SK-BR-3; read-out: LC50 SK-BR3) was 1220 nM, the IC (TGI) (SK-BR-3; read-out: TGI SK-BR3) was 164 nM and the GI50 (HeLa; read-out: GI50 HELA) was 38.6 nM. For the same molecule, the CC50 (HeLa; read-out: LC50 HELA) was 289 nM, the IC (TGI) (HeLa; read-out: TGI HELA) was 75.5 nM and the GI50 (K-562; read-out: GI50 K562) was 28.3 nM. For the same molecule, the CC50 (K-562; read-out: LC50 K562) was 2690 nM, the IC (TGI) (K-562; read-out: TGI K562) was 135 nM and the GI50 (SK-MEL-28; read-out: GI50 MEL-28) was 56.8 nM. It also gave a CC50 (SK-MEL-28; read-out: LC50 MEL-28) of 692 nM, an IC (TGI) (SK-MEL-28; read-out: TGI MEL-28) of 135 nM and a GI50 (IGROV-1; read-out: GI50 IGROV) of 49 nM. It also gave a CC50 (IGROV-1; read-out: LC50 IGROV) of 1570 nM and an IC (TGI) (IGROV-1; read-out: TGI IGROV) of 155 nM.
